Experimental data: patent publication US12440466B2, “Fatty acid derivatives for treating non-alcoholic steatohepatitis” (BASF AS, priority 2017, dated 2025)
Marks after values point to notes of the source that are not given here.

Experiments:
CETP = CETP expression in APOE*3.CETP mice; format: in vivo, mouse; settings: Compound A
[1] = tested on: genes regulating extracellular matrix (ECM) stability or fibrolysis; test: Hepatic ECM stability/fibrolysis gene expression by RNA sequencing in ob/ob AMLN mice; format: in vivo, mouse; settings: 4 weeks, Compound A 112 mg/kg, pioglitazone 30 mg/kg
Protocol: (§1) Obese diet-induced B6.V-Lepob/Jrj mice (ob/ob) are consistently fibrosis (liver) prone when cholesterol (2%), 40% fat (containing 18% trans-fatty acids) and 20% fructose are added to a high-caloric diet (i.e., AMLN high-fat diet). ob/ob mice on AMLN diet (termed ‘ob/ob AMLN mice’) develop steatohepatitis and fibrosis within a shorter timeframe ([…]) compared with wild-type C57BL/6 mice (AMLN mice) fed the same diet. ob/ob AMLN mice provide an obese diet-induced model of NASH that also allows the study of effects on glycemic control. Development of NASH in the ob/ob AMLN model is confirmed by biopsy.
(§2) In Biological Examples 10-12, 15, and 19, studies were performed in male ob/ob mice (5 weeks old) fed an AMLN high-fat diet for 15 weeks, then randomized into 3 groups (n=10 per group) to receive either 112 mg/kg bw per day of Compound A via diet, 30 mg/kg bw per day pioglitazone via diet or no treatment (vehicle) for a further 4 weeks. An oral glucose tolerance test (OGTT) was performed at week 3. Hepatic fibrosis was assessed via measurements of hepatic fibrogenic/fibrolytic gene expression by RNA sequencing at 4 weeks.

MMP-13 mRNA = test: Hepatic MMP-13 mRNA expression by qPCR, CDAA/high-fat diet mouse model; format: in vivo; settings: CDAA/high-fat fed mice; Compound A 0.3 mmol/kg bw/day oral; GLP-1a 0.4 mg/kg once weekly i.p.
Protocol: (§3) Mice were fed either choline-sufficient (CS) or choline deficient high-fat diets (31% total calories; “CDAA/high-fat”). The NASH inducing diet was instigated 6 weeks prior to the commencement of treatment in order to design the study as a treatment/reversal set-up rather than prophylaxis.
(§4) Studies were performed in male C56BL/6J mice (9 weeks old). Mice were divided into 6 experimental groups (n=9 per group) containing either CS or CDAA/high-fat diets, as described above. The NASH inducing CDAA/high fat diet was instigated 6 weeks prior to the commencement of treatment in order to assess treatment/reversal rather than prophylaxis. […] Compound A was administered orally as admix to the high-fat diet whilst GLP-1 agonist was delivered via intraperitoneal injection (i.p.). Fibrosis, inflammation and metabolism related transcripts levels were measured by quantitative real-time polymerase chain reaction (qPCR) in isolated liver tissue.

[2] = tested on: LX-2 human hepatic stellate cells; test: LX-2 cell viability by MTS assay; format: cell-based; settings: LX-2 cells; 24 hours; Compound A 10-75 μM, OA 75 μM
Protocol: (§5) Stellate cells are resident liver cells and the major cell type involved in the initiation and progression of liver fibrosis. In Biological Example 20, in vitro studies were performed on cultured human stellate cells (LX-2 cells) to assess direct effects of Compound A on these cells. Cells were treated for 24 hours with Compound A (10 μM, 25 μM, 50 μM, or 75 μM) or oleic acid (OA; 75 μM) and bromodeoxyuridine (BrdU) incorporation was assessed to determine effects on proliferation. A MTS (3-(4,5-dimethylthiazol-2-yl)-5-(3-carboxymethoxyphenyl)-2-(4-sulfophenyl)-2H-tetrazolium) assay was used to determine cell viability.
(§6) Cell proliferation of LX-2 human hepatic stellate cells treated for 24 hours with 10-75 μM of Compound A or oleic acid (OA) (75 μM) was assessed by BrdU incorporation. The results are normalised mean values ±S.E.M. of 5 independent experiments for icosabutate and 2 independent experiments for OA. […] The reduction in proliferation by Compound A was 25-34% at 24 hours whereas OA had no effect. The comparisons were made by one-way ANOVA with Dunnett's correction for multiple comparisons.

ob/ob AMLN mice = test: Hepatic steatosis and hepatic cholesterol content in ob/ob AMLN mice; format: in vivo, mouse; settings: 8 weeks, Compound A 45-135 mg/kg, OCA 30 mg/kg
Protocol: as §1
In Biological Examples 10, 13-14, and 16-18, studies were performed in male ob/ob mice (5 weeks old) fed an AMLN high-fat diet for 18 weeks, then randomized into 6 groups (n=10 per group) to receive either Compound A (at 3 different daily doses, 45 mg/kg, 90 mg/kg or 135 mg/kg) via diet, 30 mg/kg bw per day obeticholic acid (OCA) via diet, or no treatment (vehicle) for a further 8 weeks. Assessment of NASH related parameters and fibrosis was made at study end by quantitative immune histochemistry (IHC) measurements.

[3] = tested on: canonical genes regulating hepatic fibrogenesis; test: Hepatic fibrogenic gene expression by RNA sequencing in ob/ob AMLN mice; format: in vivo, mouse; settings: 4 weeks, Compound A 112 mg/kg, pioglitazone 30 mg/kg
Protocol: as §1, §2

TIMP-1a mRNA = test: Hepatic TIMP-1a mRNA expression by qPCR, CDAA/high-fat diet mouse model; format: in vivo; settings: CDAA/high-fat fed mice; Compound A 0.3 mmol/kg bw/day oral; GLP-1a 0.4 mg/kg once weekly i.p.; alone or combined
Protocol: as §3, §4

[4] = tested on: LX-2 human hepatic stellate cells; test: LX-2 stellate cell proliferation by BrdU incorporation; format: cell-based; settings: LX-2 cells, 24 hours
Protocol: as §5, §6

CC/C=C\C/C=C\C/C=C\C/C=C\C/C=C\CCCCOC(CC)C(=O)O (stereo not shown) [Compound A, 2-((5Z,8Z,11Z,14Z,17Z)-icosa-5,8,11,14,17-pentaenyloxy)butanoic acid]
CETP expression (CETP): significantly reduce CETP expression | hepatic expression of LOX-like 2 (LOXL2) [1]: significantly reduced | hepatic expression of LOXL1 [1]: significantly reduced | hepatic expression of TIMP1 [1]: significantly reduced | hepatic expression of lysyl-oxidase (LOX) [1]: significantly reduced | MMP-13 (relative mRNA expression) (MMP-13 mRNA): 1.6*** | cell viability (MTS assay) [2]: neither Compound A nor OA showed a significant effect | steatosis (percent area or total lipid content) (ob/ob AMLN mice): significantly reduced | hepatic HSP47 expression [3]: significantly reduced | hepatic PDGF-β expression [3]: significantly reduced | hepatic PDGFR-β expression [3]: significantly reduced | hepatic col1A1 expression [3]: significantly reduced | hepatic col3A1 expression [3]: significantly reduced | hepatic col4A1 expression [3]: significantly reduced | TIMP-1a (relative mRNA expression) (TIMP-1a mRNA): 2*** | proliferation (BrdU incorporation) compared to OA or vehicle ([4]; 25 μM, p<0.005): less proliferative | proliferation (BrdU incorporation) compared to OA or vehicle ([4]; 50 μM, p<0.0001): less proliferative | proliferation (BrdU incorporation) compared to OA or vehicle ([4]; 75 μM, p<0.005): less proliferative | reduction in proliferation (BrdU incorporation) ([4]; Compound A 25-75 μM): 25-34%
